We go through 4 molecules from patent EP3046573B1, “AMYLIN ANALOGUES” (Zealand Pharma A/S, priority 2013, dated 2015).

Data set [1] concerns the target T1, human calcitonin receptor (hCTR2) (Homo sapiens, UniProt P30988).
T1 construct: expressed in transfected cells
T1 sequence (P30988 25-474): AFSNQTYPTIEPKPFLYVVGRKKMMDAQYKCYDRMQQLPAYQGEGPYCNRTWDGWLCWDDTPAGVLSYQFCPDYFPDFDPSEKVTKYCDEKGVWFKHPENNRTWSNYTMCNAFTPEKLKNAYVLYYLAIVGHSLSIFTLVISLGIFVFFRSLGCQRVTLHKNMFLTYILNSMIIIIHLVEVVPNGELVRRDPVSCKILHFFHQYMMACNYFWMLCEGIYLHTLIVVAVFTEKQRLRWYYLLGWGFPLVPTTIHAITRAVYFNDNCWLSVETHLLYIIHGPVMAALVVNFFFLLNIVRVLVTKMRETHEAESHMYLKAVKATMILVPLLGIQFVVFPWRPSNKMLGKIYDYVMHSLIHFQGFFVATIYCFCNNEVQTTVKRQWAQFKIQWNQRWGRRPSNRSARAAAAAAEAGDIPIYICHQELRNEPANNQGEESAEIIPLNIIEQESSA
In words: hCTR2 assay: induction of cAMP (AlphaScreen cAMP Assay kit) in COS7 cells expressing hCTR2. The class given is cell-based. The method, boiled down: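 Peptide-induced cAMP in hCTR2-expressing COS7 cells, 15 min at 37° C with phosphodiesterase inhibitor IBMX (100 µM), detected by AlphaScreen; potency from 4PL curves.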
On the technique in general: In Alpha technology, singlet oxygen from a donor bead excites a nearby acceptor bead.

Data set [2] deals with T2, human amylin receptor 3 (hAMYR3) consisting of hCTR2 co-expressed with human Receptor Activity Modifying Protein 3 (hRAMP3) (Homo sapiens, UniProt O60896+P30988).
T2 construct: expressed in transfected cells
T2 sequence (P30988 25-474): T1 sequence (P30988 25-474)
T2 sequence (O60896 24-148 partner): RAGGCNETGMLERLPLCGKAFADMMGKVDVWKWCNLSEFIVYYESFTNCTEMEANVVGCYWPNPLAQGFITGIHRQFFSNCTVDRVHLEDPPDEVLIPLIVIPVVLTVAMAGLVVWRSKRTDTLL
As to the kind of experiment: hAMYR3 assay: induction of cAMP (AlphaScreen cAMP Assay kit) in COS7 cells expressing hAMYR3. It is filed as cell-based. The method, boiled down:
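cAMP accumulation read by AlphaScreen in lysates of RAMP-naive COS7 cells stably transfected with hCTR2 plus hRAMP3. Cells exposed to peptide dilutions for 15 min, 37° C, with 100 µM IBMX; 4PL fitting gave EC50 and efficacy relative to pramlintide.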

Data set [3] in a line: Solubility assessment (turbidity absorbance at 325 nm). It is filed as physicochemical. To be noted: stock 2 mg/ml diluted 1:1, ambient temperature (typically 25°C), n=1; for Solubility, Acetate buffer pH 4: 100 mM acetate buffer pH 4.0; for Solubility, Acetate buffer pH 5: 100 mM acetate buffer pH 5.0; for Solubility, Histidine buffer pH 6: 100 mM histidine buffer pH 6.0; for Solubility, Histidine buffer pH 7: 100 mM histidine buffer pH 7.0; for Solubility, Phosphate buffer pH 6: 100 mM phosphate buffer pH 6.0; for Solubility, Phosphate buffer pH 7: 100 mM phosphate buffer pH 7.0; for Solubility, Phosphate buffer pH 7.5: 100 mM phosphate buffer pH7.5. The method, boiled down:
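Turbidity read as absorbance at 325 nm (also 280 nm), single samples at ambient temperature (typically 25°C); ≤ 0.02 units counts as ≥ 1 mg/ml soluble. Samples made by 1:1 dilution of a 2 mg/ml acidic stock into 100 mM acetate, histidine or phosphate buffers, pH 4.0–7.5.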

Where [4] appears, read: cAMP induction in COS7 cells expressing hCTR2, average of a minimum of 3 determinations, read-out: hCTR2 EC50.
Where [5] appears, read: cAMP induction in COS7 cells expressing hAMYR3, average of a minimum of 3 determinations, read-out: hAMY R3 EC50.

What is called EC50 is the concentration giving half of the maximal effect.

The structures appear in SMILES notation. Read-outs that look alike come from different tables or passages of the source. Numbered stars: 1 amine (or outer) side, 2 acyl side, 3 side chain; on linkers, the order of the positions; unused ones are H or OH. Bridge positions count the residues as written; N and C are the ends. Square brackets hold non-standard residues; d marks the D form. Peptide text beside a SMILES is read from it. * marks the point of attachment. C20 diacid = O=C(O)CCCCCCCCCCCCCCCCCCC(=O)*; γGlu = O=C(O)[C@H](CCC(=O)[*:2])N[*:1]; Hyp = O=C(O)[C@@H]1C[C@@H](O)CN1; NMeI = CC[C@H](C)[C@H](NC)C(=O)O; Sar = CNCC(=O)O

As for `CC[C@H](C)[C@@H](C(=O)N[C@@H](CC(C)C)C(=O)N[C@@H](CO)C(=O)N[C@@H](CO)C(=O)N[C@H](C(=O)N[C@@H](CCC(=O)O)C(=O)N[C@H](C(=O)NCC(=O)N[C@@H](CO)C(=O)N[C@@H](CCC(=O)O)C(=O)N[C@H](C(=O)N1CCC[C@H]1C(N)=O)[C@@H](C)O)C(C)C)[C@@H](C)O)N(C)C(=O)CN(C)C(=O)[C@H](Cc1ccccc1)NC(=O)[C@H](CO)NC(=O)[C@H](CO)NC(=O)[C@H](CO)NC(=O)[C@H](CO)NC(=O)[C@H](CCCNC(=N)N)NC(=O)[C@H](Cc1c[nH]cn1)NC(=O)[C@H](CC(C)C)NC(=O)[C@H](Cc1ccccc1)NC(=O)[C@H](CCC(=O)O)NC(=O)[C@H](C)NC(=O)[C@H](CC(C)C)NC(=O)[C@H](CCCNC(=N)N)NC(=O)[C@H](CCC(N)=O)NC(=O)[C@@H](NC(=O)[C@H](C)NC(=O)[C@@H]1CSSC[C@H](NC(=O)[C@H](CCCNC(=N)N)NC(=O)CC[C@H](NC(=O)CCCCCCCCCCCCCCCCCCC(=O)O)C(=O)O)C(=O)N[C@@H](CC(N)=O)C(=O)N[C@@H]([C@@H](C)O)C(=O)N[C@@H](C)C(=O)N[C@@H]([C@@H](C)O)C(=O)N1)[C@@H](C)O` [Compound 77, [19CD]-isoGlu-RC()NTATC()ATQRLAEFLHRSSSSF-Gly(Me)-Ile(Me)-LSSTEVGSETP-NH2] ({C20 diacid-γGlu}-RCNTATCATQRLAEFLHRSSSSF[Sar][NMeI]LSSTEVGSETP-NH2; disulfide 2-7), in data set [1] (setting [4]), the EC50 was 0.17 nM. The EC50 in data set [2] (setting [5]) turned out to be 0.24 nM. Further, in data set [3], the “Solubility, Acetate buffer pH 4” value is listed as “SS (SS indicates solubility ≥ 1mg/ml)”; the “Solubility, Acetate buffer pH 5” value is on record as “II (II indicates solubility ≤ 1 mg/ml)”; the “Solubility, Histidine buffer pH 6” value is given as “II (II indicates solubility ≤ 1 mg/ml)”; the “Solubility, Histidine buffer pH 7” value was “SS (SS indicates solubility ≥ 1mg/ml)”. In data set [3], the “Solubility, Phosphate buffer pH 6” value is “II (II indicates solubility ≤ 1 mg/ml)”; the “Solubility, Phosphate buffer pH 7” value is listed as “SS (SS indicates solubility ≥ 1mg/ml)”; the “Solubility, Phosphate buffer pH 7.5” value was “SS (SS indicates solubility ≥ 1mg/ml)”.

As for `CC[C@H](C)[C@@H](C(=O)N[C@@H](CC(C)C)C(=O)N[C@@H](CO)C(=O)N[C@@H](CO)C(=O)N[C@H](C(=O)N[C@@H](CC(N)=O)C(=O)N[C@H](C(=O)NCC(=O)N[C@@H](CO)C(=O)N[C@@H](CC(N)=O)C(=O)N[C@H](C(=O)N1CCC[C@H]1C(N)=O)[C@@H](C)O)C(C)C)[C@@H](C)O)N(C)C(=O)[C@H](C)NC(=O)CN(C)C(=O)[C@H](Cc1ccccc1)NC(=O)[C@H](CC(N)=O)NC(=O)[C@H](CC(N)=O)NC(=O)[C@H](CO)NC(=O)[C@H](CO)NC(=O)[C@H](CCCNC(=N)N)NC(=O)[C@H](Cc1c[nH]cn1)NC(=O)[C@H](CC(C)C)NC(=O)[C@H](Cc1ccccc1)NC(=O)[C@H](CCC(=O)O)NC(=O)[C@H](C)NC(=O)[C@H](CC(C)C)NC(=O)[C@H](CCCNC(=N)N)NC(=O)[C@H](CCC(N)=O)NC(=O)[C@@H](NC(=O)[C@H](C)NC(=O)[C@@H]1CSSC[C@H](NC(=O)[C@H](CCCNC(=N)N)NC(=O)[C@H](CCCCN)NC(=O)CC[C@H](NC(=O)CCCCCCCCCCCCCCCCCCC(=O)O)C(=O)O)C(=O)N[C@@H](CC(N)=O)C(=O)N[C@@H]([C@@H](C)O)C(=O)N[C@@H](C)C(=O)N[C@@H]([C@@H](C)O)C(=O)N1)[C@@H](C)O` [Compound 84, [19CD]-isoGlu-KRC()NTATC()ATQRLAEFLHRSSNNF-Gly(Me)-A-Ile(Me)-LSSTNVGSNTP-NH2] ({C20 diacid-γGlu}-KRCNTATCATQRLAEFLHRSSNNF[Sar]A[NMeI]LSSTNVGSNTP-NH2; disulfide 3-8), the EC50 in data set [1] amounted to 0.11 nM. Further, the EC50 in data set [2] stood at 0.1 nM. In data set [3], the “Solubility, Acetate buffer pH 4” value was “SS (SS indicates solubility ≥ 1mg/ml)”; the “Solubility, Acetate buffer pH 5” value is recorded as “SS (SS indicates solubility ≥ 1mg/ml)”; the “Solubility, Histidine buffer pH 6” value is recorded as “SS (SS indicates solubility ≥ 1mg/ml)”; the “Solubility, Histidine buffer pH 7” value was “SS (SS indicates solubility ≥ 1mg/ml)”. Also, in data set [3], the “Solubility, Phosphate buffer pH 6” value was “SS (SS indicates solubility ≥ 1mg/ml)”; the “Solubility, Phosphate buffer pH 7” value is “SS (SS indicates solubility ≥ 1mg/ml)”; the “Solubility, Phosphate buffer pH 7.5” value is “SS (SS indicates solubility ≥ 1mg/ml)”.

`CC[C@H](C)[C@@H](C(=O)N[C@@H](CC(C)C)C(=O)N[C@@H](CO)C(=O)N[C@@H](CO)C(=O)N[C@H](C(=O)N[C@@H](CCC(=O)O)C(=O)N[C@H](C(=O)NCC(=O)N[C@@H](CO)C(=O)N[C@@H](CCC(=O)O)C(=O)N[C@H](C(=O)N1C[C@H](O)C[C@H]1C(N)=O)[C@@H](C)O)C(C)C)[C@@H](C)O)N(C)C(=O)CN(C)C(=O)[C@H](Cc1ccccc1)NC(=O)[C@H](CO)NC(=O)[C@H](CO)NC(=O)[C@H](CO)NC(=O)[C@H](CO)NC(=O)[C@H](CCCNC(=N)N)NC(=O)[C@H](Cc1c[nH]cn1)NC(=O)[C@H](CC(C)C)NC(=O)[C@H](Cc1ccccc1)NC(=O)[C@H](CCC(=O)O)NC(=O)[C@H](C)NC(=O)[C@H](CC(C)C)NC(=O)[C@H](CCCNC(=N)N)NC(=O)[C@H](CCC(=O)O)NC(=O)[C@@H](NC(=O)[C@H](C)NC(=O)[C@@H]1CSSC[C@H](NC(=O)[C@H](CCCNC(=N)N)NC(=O)CC[C@H](NC(=O)CCCCCCCCCCCCCCCCCCC(=O)O)C(=O)O)C(=O)N[C@@H](CCC(=O)O)C(=O)N[C@@H]([C@@H](C)O)C(=O)N[C@@H](C)C(=O)N[C@@H]([C@@H](C)O)C(=O)N1)[C@@H](C)O` [Compound 171, [19CD]-isoGlu-RC()ETATC()ATERLAEFLHRSSSSF-Gly(Me)-Ile(Me)-LSSTEVGSET-Hyp-NH2] ({C20 diacid-γGlu}-RCETATCATERLAEFLHRSSSSF[Sar][NMeI]LSSTEVGSET[Hyp]-NH2; disulfide 2-7): the EC50 in data set [1] (setting [4]) came to 0.84 nM; in data set [2] (setting [5]), 0.54 nM.

`CC[C@H](C)[C@@H](C(=O)N[C@@H](CC(C)C)C(=O)N[C@@H](CO)C(=O)N[C@@H](CO)C(=O)N[C@H](C(=O)N[C@@H](CC(=O)O)C(=O)N[C@H](C(=O)NCC(=O)N[C@@H](CO)C(=O)N[C@@H](CC(=O)O)C(=O)N[C@H](C(=O)N1CCC[C@H]1C(N)=O)[C@@H](C)O)C(C)C)[C@@H](C)O)N(C)C(=O)[C@H](C)NC(=O)CN(C)C(=O)[C@H](Cc1ccccc1)NC(=O)[C@H](CO)NC(=O)[C@H](CO)NC(=O)[C@H](CO)NC(=O)[C@H](CO)NC(=O)[C@H](CCCNC(=N)N)NC(=O)[C@H](Cc1c[nH]cn1)NC(=O)[C@H](CC(C)C)NC(=O)[C@H](Cc1ccccc1)NC(=O)[C@H](CCC(=O)O)NC(=O)[C@H](C)NC(=O)[C@H](CC(C)C)NC(=O)[C@H](CCCNC(=N)N)NC(=O)[C@H](CCC(=O)O)NC(=O)[C@@H](NC(=O)[C@H](C)NC(=O)[C@@H]1CSSC[C@H](NC(=O)[C@H](CCCNC(=N)N)NC(=O)CC[C@H](NC(=O)CCCCCCCCCCCCCCCCCCC(=O)O)C(=O)O)C(=O)N2CCC[C@H]2C(=O)N[C@@H]([C@@H](C)O)C(=O)N[C@@H](C)C(=O)N[C@@H]([C@@H](C)O)C(=O)N1)[C@@H](C)O` [Compound 173, [19CD]-isoGlu-RC()PTATC()ATERLAEFLHRSSSSF-Gly(Me)-A-Ile(Me)-LSSTDVGSDTP-NH2] ({C20 diacid-γGlu}-RCPTATCATERLAEFLHRSSSSF[Sar]A[NMeI]LSSTDVGSDTP-NH2; disulfide 2-7): the half-maximal effective concentration (EC50) is 0.062 nM in data set [1] (setting [4]) and 0.14 nM in data set [2] (setting [5]).
